Tested on: AM fungi (mixed INVAM inoculum)
Test: Pot study: AM fungal spore production in steamed ML soil/sand with INVAM inoculum, planted or unplanted
Assay type: in vivo
Settings: for AM Fungal Spores per 100 g soil: 80 ppm treatment P, end of study at 66 days, start 408 spores per 100 g; for increase in spore population from the start of the study: planted with yellow sweet clover; for increase in spore population from the start of the study / increase in spore population at 66 days over the levels at time 0: 66 days vs 408 spores per 100 g at time 0
Excerpt: This Example is an un-replicated study to examine whether PO3^−3 (phosphite) impacts spore production and infection rate of AM fungi. The fungi were a mixed inoculum source from the University of West Virginia (UWV). UWV holds and maintains the International Culture Collection of (Vesicular) Arbuscular Mycorrhizal Fungi (INVAM). The plant used was yellow blossom sweet clover (Melilotus officinalis). All pots were inoculated, but only half were planted. Each Experimental unit was a 20 cm pot. Substrate for the units were a soil, sand, and inoculum mixture.
A known AM fungal inoculum was obtained from The International Culture Collection of (Vesicular) Arbuscular Mycorrhizae (invam.wvu.edu, Director Matt Kasson) maintained at the University of West Virginia in Morgantown, WV, US. A mixed culture of four AM fungal species was ordered. The mixture contained 250 ml of soil inoculum of each species. The total weight the entire mixed sample was 1345 grams and thus a bulk density of the sample of 1.345 g/ml. The material received contained the following species: Claroideoglomus etunicatum., Accession number AZ 201C (initially described by Becker W. N. and Gerdemann J. W., Mycotaxon, 6:29, 1977, as Glomus etunicatum.), spores were orange to red-brown, globose, subglobose; 60-160 μm diameter; mean 129 μm (n=120); Rhizophagus clarus, Accession number AZ 151D (initially described by Schenck, N. Mycologia, 71:182, 1979, as Glomus clarum.), spores are from white to yellow brown with many pale yellow to pale yellow brown, 100 to 260 μm diameter, mean 182 μm (n=120); Rhizophagus intraradices, Accession number AZ 123 (initially described by Schenck, N. Mycologia, 74:78, 1982, as Glomus intraradices), spores were white, pale cream, to yellow, brown, sometimes with a green hint, globose, subglobose, irregular. 40 to 140 μm diameter, mean 93.3 (n=170); and Septoglomus deserticola, Accession number CA 113 (initially described by Trappe J. Bluss and Menge J., 1984, Mycotaxon, 20:123, 1984, as Glomus deserticola), spores are orange-brown to dark red brown, most are reddish brown, globose to subglobose, sometimes irregular, 60 to 140 μm diameter.
The present example was designed as a pot experiment where each pot was a treatment, the treatments being untreated controls, units treated with phosphate, and units treated with phosphite. All pots were a mixture of steamed ML soil, sand, and inoculum. Control units (pots) received no other treatment. Phosphate pots were treated with K2HPO4. Phosphite pots were treated with an equivalent molarity (concentration) of P as K2HPO3.
Half of the pots (a control, phosphate, and phosphite treatments) were planted with yellow sweet clover seed. The other half of the pots (also a control, phosphate, and phosphite treatment) were not planted with any plants.
Phosphate and phosphite were added to the soil materials such that the phosphorus in each would constitute 80 mg per kg of soil (Table 6). This is more than was added to the field experimental plots described in Example 3. However, the results of that experiment (Example 4) did show a response of the AM fungi to phosphite. In Example 4, phosphorous either as phosphate or phosphite, was added at 61.53 ppm. In Example 4, there was no apparent inhibition of infection or spore production by addition of phosphorus. The level of P was raised to 80 mg per kg in this example to accentuate the impact of added P on the AM fungi. Each pot described in Table 6 contained 3.022.5 g of soil material (soil plus sand and inoculum).
The various treatment substrates, i.e., soil, sand, and inoculum, were mixed in batches. The control batch was established and mixed for the control treatments. Likewise, the phosphate and phosphite batches were mixed, respectively, for all phosphate and phosphite treatments. The treatments salts (K2HPO4 and K2HPO3) were added as 400 ml aqueous solution (chemical in distilled water to 400 ml). […]

[1] = YBSC (yellow sweet clover) plants

| SMILES | AM Fungal Spores per 100 g soil [1] | AM Fungal Spores per 100 g soil (no plants) | increase in spore population from the start of the study | mature brownish reddish spores (planted, 66 days) | small, immature spores (planted, 66 days) | light colored to white spores (unplanted, 66 days) | mature brownish reddish spores (unplanted, 66 days) | small, immature spores (unplanted, 66 days) | increase in spore population at 66 days over the levels at time 0 (unplanted) |
| --- | --- | --- | --- | --- | --- | --- | --- | --- | --- |
| OP(O)O [PO3, dipotassium phosphite] | 4,598 per 100 g soil | 7,301 per 100 g soil | 1,127% | 3,480 per 100 g soil | 217 per 100 g soil | 1,429 spores per 100 g soil | 4,287 per 100 g soil | 1,585 per 100 g soil | 1,789% |
| O=P([O-])([O-])O.[K+].[K+] [PO4, dipotassium phosphate] | 7,146 per 100 g soil | 5,220 per 100 g soil | 1,751% | 2,827 per 100 g soil | 3,604 per 100 g soil | – | 2,237 per 100 g soil | 2,548 per 100 g soil | 1,279% |
